In patent publication US11649502B2, “Exosomal microRNA in serum as an indicator for the activation of brown and beige fat tissue (BAT)” (RHEINISCHE FRIEDRICH-WILHELMS-UNIVERSITÄT BONN, priority 2015, dated 2023):

Key:
[1] = system: C57BL/6J wild type mice; experiment: qPCR of exosomal miRNAs in mouse serum after BAT activation; format: in vivo
Protocol: Cold exposure was performed by housing 12 week old male mice at 4° C. for 7 days. The β3-adrenergic agonist CL-316,243 (#1499, Tocris, Wiesbaden, GER, 0.2 mg/mL in 0.9 W/V % NaCl) was administered by subcutaneous injection (1 μg per g body weight) for 7 days. Control-treated C57BL/6J mice received vehicle injections (0.9% NaCl) correspondingly. Blood collections were performed after 4 hours of fasting.

[2] = system: UCP-1; experiment: UCP-1 expression after NE treatment in 3T3-L1 cells; format: cell-based; conditions: 3T3-L1 cells after NE treatment
From the text: The supernatant was withdrawn and used for exosome isolation.

[3] = system: UCP-1; experiment: UCP-1 expression after NE treatment in primary murine white adipocytes; format: cell-based, mouse; conditions: primary murine white adipocytes treated with NE
[4] = serum of mice with active BAT (CL-316,243 or cold)

| SMILES | miR-133a in serum-derived exosomes ([1]; CL-treated mice, 1 μg per g body weight s.c. for 7 days) | miR-34c* in serum exosomes (qPCR) [1, 4] | miR-92a in serum exosomes (qPCR) [1, 4] | UCP-1 expression [2] | UCP-1 expression [3] |
| --- | --- | --- | --- | --- | --- |
| C[C@H](Cc1ccc2c(c1)OC(C(=O)[O-])(C(=O)[O-])O2)NC[C@H](O)c1cccc(Cl)c1.[Na+].[Na+] [CL] | down-regulated | significantly up- | down-regulated |  |  |
| NC[C@H](O)c1ccc(O)c(O)c1 [NE, norepinephrine] |  |  |  | did not significantly increase | significant increase |
